{"source": "patent US20070289889A1", "about": "“Biomarkers For The Prediction Of Drug-In Duced Diarrhea” (NOVARTIS AG, priority 2003, published 2007)", "key": {"[1]": {"system": "drug-sensitive and multidrug-resistant cells overexpressing P-glycoprotein", "conditions": "cited from earlier work"}, "[2]": {"system": "adult patients with advanced solid tumours", "test": "Phase I open-label dose-escalation trial, maximum tolerated dose and diarrhoea", "assay_type": "in vivo, human", "method": "A group of eleven genes were identified as having statistically significant differences in expression levels when comparing the test samples to their respective baseline samples. […] These genes were identified following a […] dose-finding clinical trial, which was undertaken in which epothilone B was administered weekly to adult patients with advanced solid tumours. A clinical pharmacogenetics (CPG) analysis identified biomarker candidates for the incidence of epothilone B-induced diarrhoea. The analysis also identified genomic-based factors (such as mRNA expression profiles) that are associated with the incidence of epothilone B-induced diarrhoea.\nThe maximum tolerated dose (MTD) for a compound is determined using methods and materials known in the medical and pharmacological arts, for example through dose-escalation experiments. One or more patients is first treated with a low dose of the compound, typically 10% of the dose anticipated to be therapeutic based on results of in vitro cell culture experiments. The patients are observed for a period of time to determine the occurrence of toxicity. Toxicity is typically evidenced as the observation of one or more of the following symptoms: vomiting, diarrhoea, peripheral neuropathy, ataxia, neutropaenia, or elevation of liver enzymes. If no toxicity is observed, the dose is increased 2-fold, and the patients are again observed for evidence of toxicity. This cycle is repeated until a dose producing evidence of toxicity is reached. The dose immediately preceding the onset of unacceptable toxicity is taken as the […]. A determination of the MTD for epothilone B is provided above.\nClinical trial design. This clinical trial was an open-label, dose-escalation trial using a standard Phase I protocol design (3+3 design) of enrolling three-six patients per cohort to establish the maximum tolerated dose. Peripheral whole blood was collected from patients that consented to clinical pharmacogenetics analysis. Two clinical pharmacogenetics blood samples were scheduled: baseline and on Day 2 of Week 1 at hour 24. The core treatment period consisted of two nine-week cycles of weekly intravenous administrations of epothilone B as tolerated by haematologic and other toxicities. The doses of epothilone B used in this trial were 0.3, 0.5, 0.75, 1.1, 1.85, 2.5, 3.0 and 3.6 mg/m^2.\nClinical pharmacogenetics subjects used for the analysis. Epothilone B was administered to subjects as a single intravenous infusion over five minutes in a maximum volume of 20 ml either every week for up to six weeks followed by a three-week wash-out period, or every week for three weeks followed by one week without treatment. The 2.5 mg/m^2 treatment was considered to be the maximum tolerated dose (MTD). Therefore, twenty clinical pharmacogenetics participants who were in the 2.5, 3.0 and 3.6 mg/m^2 treatment groups and whose arrays met the quality standards were used. The rationale behind this decision was based on the assumption that those genes whose expression was affected by the 2.5 mg/m^2 treatment would be more pronounced in 3.0 and 3.6 mg/m^2 treatment groups.\n(§1) Because there were only three subjects who experienced grade 3 diarrhoea, all fifteen subjects who experienced any grade of diarrhoea were grouped together to strengthen the statistical power of this analysis."}, "white blood cells [3]": {"system": "white blood cells", "test": "mRNA expression profiling (Affymetrix U95A) of white blood cells, baseline vs. treated", "assay_type": "in vivo, human", "method": "(§2) Samples. Forty-three out of the ninety-one subjects who enrolled in the clinical trial consented to clinical pharmacogenetics analysis. For each subject, two clinical pharmacogenetics blood samples were scheduled: baseline and on Day 2 of Week 1 at hour 24. White blood cell (WBC) pellets were ficoll-hypaque separated from the whole blood by the investigator, frozen at −80° C. mRNA was extracted and profiled on the Affymetrix U95A GeneChip® platform.\n(§3) mRNA expression profiling analysis. Any array with greater than 20% of genes called present by the Affymetrix MAS5 algorithm was a candidate for the analyses described herein. Affymetrix, “New statistical algorithms for monitoring gene expression on GeneChip® probe arrays.” Affymetrix Technical Notes. (2001). […] Forty-two out of the possible eighty-six arrays met the quality standards needed for analysis.\n(§4) Statistical analysis. Fisher's Exact tests were performed to compare the demographics of the clinical pharmacogenetics participants to the overall trial population. An analysis of variance (ANOVA) was used to determine whether mRNA gene expression patterns correlated to either treatment status (baseline vs. treated), to experiencing diarrhoea (no diarrhoea vs. diarrhoea) or to whether specific blood cell type levels correlated to experiencing diarrhoea. All statistical analyses were performed using the SigmaStat 2.03 and SAS 8.02 programs.\nAnalysis of baseline vs. treated mRNA profiles by treatment group. To determine if gene expression in white blood cells was altered by epothilone B at 24 hours after treatment, a comparison between baseline and treated expression profiles was performed."}, "[4]": {"conditions": "Rothermel et al. 2003; cited from earlier work"}, "white blood cells [5]": {"system": "white blood cells", "test": "mRNA expression profiles of white blood cells after treatment, no diarrhoea vs. diarrhoea subjects", "assay_type": "in vivo, human", "conditions": "treated; for Signal Value 297_g_at (Tubulin, beta) / Signal Value 477_at (IRF5) / Signal Value 1274_s_at (CDC34) / Signal Value 33336_at (SLC4A1) / Signal Value 33759_at (BPGM) / Signal Value 37285_at (ALAS2) / Signal Value 37405_at (SELENBP1) / Signal Value 39436_at (BNIP3L): average of arrays", "method": "as §2, §3, §4, §1\nA comparison of the mRNA expression profiles of white blood cells identified eight genes with statistically significant differences between the two groups of subjects 24 hours after epothilone B administration. See, TABLE 3.\nCompare, TABLE 8 and TABLE 13."}, "[6]": {"conditions": "CPG subjects, grade 1 diarrhoea"}, "[7]": {"conditions": "of twenty CPG subjects, 2.5, 3.0 and 3.6 mg/m^2, irregardless of dose"}, "[8]": {"conditions": "3.6 mg/m^2, 24 hours after treatment"}, "[9]": {"conditions": "24 hours, any grade of diarrhoea"}}, "note": "“And” between values parts separate entries of the source, which are not always exact repeats. Equal values may be shown once."}
{"compound": "C/C(=C\\c1csc(C)n1)[C@@H]1C[C@@H]2O[C@]2(C)CCC[C@H](C)[C@H](O)[C@@H](C)C(=O)C(C)(C)[C@@H](O)CC(=O)O1", "note": "[epothilone B, Epothilone B]", "values": [{"measurement": "cytotoxicity, drug-sensitive vs. multidrug-resistant cells", "setting": "[1]", "result": "equally cytotoxic"}, {"measurement": "mean time of experiencing the first episode of diarrhoea after receiving dose", "setting": "[2]; CPG subjects", "result": 37, "unit": "days"}, {"measurement": "maximum time to first episode of diarrhoea", "setting": "[2]; [6]", "result": 304, "unit": "days"}, {"measurement": "minimum time to first episode of diarrhoea", "setting": "[2]; [6]", "result": 6, "unit": "days"}, {"measurement": "mean onset of diarrhoea after the scheduled blood draw", "setting": "[2]; clinical pharmacogenetics (CPG) subjects", "result": "371 ± 18", "unit": "days"}, {"measurement": "subjects who experienced grade 3 diarrhoea", "setting": "[2]; of twenty CPG subjects, 2.5, 3.0 and 3.6 mg/m^2", "result": "three"}, {"measurement": "subjects who did not experience diarrhoea", "setting": "[2]; [7]", "result": "five"}, {"measurement": "subjects who experienced any grade of diarrhoea", "setting": "[2]; [7]", "result": "fifteen"}, {"measurement": "maximum tolerated dose (MTD)", "setting": "[2]; weekly intravenous infusion over five minutes", "result": 2.5, "unit": "mg/m^2"}, {"measurement": "Fold Change [treated/baseline] DAPK1 (40049_at) mRNA", "setting": "white blood cells [3]; [8]", "result": 2.1}, {"measurement": "Fold Change [treated/baseline] DR1 (32621_at) mRNA", "setting": "white blood cells [3]; [8]", "result": 1.9}, {"measurement": "Fold Change [treated/baseline] JAK1 (1457_at) mRNA", "setting": "white blood cells [3]; [8]", "result": 1.7}, {"measurement": "Fold Change [treated/baseline] K-ALPHA-1 (32272_at) mRNA", "setting": "white blood cells [3]; [8]", "result": 1.7}, {"measurement": "Fold Change [treated/baseline] MAP4K2 (187_at) mRNA", "setting": "white blood cells [3]; [8]", "result": "−1.7"}, {"measurement": "Fold Change [treated/baseline] RAP1A (1848_at) mRNA", "setting": "white blood cells [3]; [8]", "result": 1.9}, {"measurement": "Fold Change [treated/baseline] SURF2 (38210_at) mRNA", "setting": "white blood cells [3]; [8]", "result": 2.4}, {"measurement": "Fold Change [treated/baseline] TCFL4 (32578_at) mRNA", "setting": "white blood cells [3]; [8]", "result": "−1.6"}, {"measurement": "Fold Change [treated/baseline] TM9SF1 (38835_at) mRNA", "setting": "white blood cells [3]; [8]", "result": 2.2}, {"measurement": "Fold Change [treated/baseline] ZFP36 (40448_at) mRNA", "setting": "white blood cells [3]; [8]", "result": 1.6}, {"measurement": "Fold Change [treated/baseline] nuclear transcription factor Y, alpha (33297_at) mRNA", "setting": "white blood cells [3]; [8]", "result": "−1.6"}, {"measurement": "number of genes with statistically significant changes in expression, treated vs. baseline", "setting": "white blood cells [3]; 3.6 mg/m^2 treatment, 24 hours", "result": "eleven"}, {"measurement": "genes with statistically significant expression differences, treated vs. baseline", "setting": "white blood cells [3]; 2.5 and 3.0 mg/m^2 treatments, 24 hours", "result": "No genes with statistically significant differences were identified"}, {"measurement": "genes with statistically significant expression differences, treated vs. baseline", "setting": "white blood cells [3]; all treated samples combined, 24 hours after treatment", "result": "no genes with statistically significant differences were identified"}, {"measurement": "dose-limiting toxicity (diarrhoea)", "setting": "[4]", "result": "dose-limiting toxicity"}, {"measurement": "myelosuppression", "setting": "[4]", "result": "no myelosuppression"}, {"measurement": "Fold Change [diarrhoea/no diarrhoea] ALAS2 (37285_at) mRNA", "setting": "white blood cells [5]; [9]", "result": "−9.6"}, {"measurement": "Fold Change [diarrhoea/no diarrhoea] BNIP3L (39436_at) mRNA", "setting": "white blood cells [5]; [9]", "result": "−2.8"}, {"measurement": "Fold Change [diarrhoea/no diarrhoea] BPGM (33759_at) mRNA", "setting": "white blood cells [5]; [9]", "result": "−4.9"}, {"measurement": "Fold Change [diarrhoea/no diarrhoea] CDC34 (1274_s_at) mRNA", "setting": "white blood cells [5]; [9]", "result": "−2.2"}, {"measurement": "Fold Change [diarrhoea/no diarrhoea] IRF5 (477_at) mRNA", "setting": "white blood cells [5]; [9]", "result": 2.9}, {"measurement": "Fold Change [diarrhoea/no diarrhoea] SELENBP1 (37405_at) mRNA", "setting": "white blood cells [5]; [9]", "result": "−11.3"}, {"measurement": "Fold Change [diarrhoea/no diarrhoea] SLC4A1 (33336_at) mRNA", "setting": "white blood cells [5]; [9]", "result": "−15.3"}, {"measurement": "Fold Change [diarrhoea/no diarrhoea] Tubulin, beta (297_g_at) mRNA", "setting": "white blood cells [5]; [9]", "result": "−3.9"}, {"measurement": "Signal Value 297_g_at (Tubulin, beta)", "setting": "white blood cells [5]; Diarrhoea (any grade) subjects", "result": 59}, {"measurement": "Signal Value 477_at (IRF5)", "setting": "white blood cells [5]; Diarrhoea (any grade) subjects", "result": 278}, {"measurement": "Signal Value 1274_s_at (CDC34)", "setting": "white blood cells [5]; Diarrhoea (any grade) subjects", "result": 128}, {"measurement": "Signal Value 33336_at (SLC4A1)", "setting": "white blood cells [5]; Diarrhoea (any grade) subjects", "result": 93}, {"measurement": "Signal Value 33759_at (BPGM)", "setting": "white blood cells [5]; Diarrhoea (any grade) subjects", "result": 70}, {"measurement": "Signal Value 37285_at (ALAS2)", "setting": "white blood cells [5]; Diarrhoea (any grade) subjects", "result": 448}, {"measurement": "Signal Value 37405_at (SELENBP1)", "setting": "white blood cells [5]; Diarrhoea (any grade) subjects", "result": 106}, {"measurement": "Signal Value 39436_at (BNIP3L)", "setting": "white blood cells [5]; Diarrhoea (any grade) subjects", "result": 1476}, {"measurement": "Signal Value 297_g_at (Tubulin, beta)", "setting": "white blood cells [5]; No Diarrhoea subjects", "result": 232}, {"measurement": "Signal Value 477_at (IRF5)", "setting": "white blood cells [5]; No Diarrhoea subjects", "result": 97}, {"measurement": "Signal Value 1274_s_at (CDC34)", "setting": "white blood cells [5]; No Diarrhoea subjects", "result": 278}, {"measurement": "Signal Value 33336_at (SLC4A1)", "setting": "white blood cells [5]; No Diarrhoea subjects", "result": "1421 and 1422"}, {"measurement": "Signal Value 33759_at (BPGM)", "setting": "white blood cells [5]; No Diarrhoea subjects", "result": 344}, {"measurement": "Signal Value 37285_at (ALAS2)", "setting": "white blood cells [5]; No Diarrhoea subjects", "result": 4292}, {"measurement": "Signal Value 37405_at (SELENBP1)", "setting": "white blood cells [5]; No Diarrhoea subjects", "result": 1200}, {"measurement": "Signal Value 39436_at (BNIP3L)", "setting": "white blood cells [5]; No Diarrhoea subjects", "result": 4200}, {"measurement": "Fold Change [diarrhoea/no diarrhoea] 297_g_at (Tubulin, beta)", "setting": "white blood cells [5]; grade 3 diarrhoea", "result": "−3.0"}, {"measurement": "Fold Change [diarrhoea/no diarrhoea] 477_at (IRF5)", "setting": "white blood cells [5]; grade 3 diarrhoea", "result": "^f2.7"}]}
